Structures can show the parent of a compound that is named as a salt. Where only a bound is given, the exact number is not on record here.

The target in one experiment is T1, c-Myc/Max/Ebox DNA (Homo sapiens, UniProt P01106).
T1 construct: his6 (cleaved yes)
T1 sequence (P01106 whole entry): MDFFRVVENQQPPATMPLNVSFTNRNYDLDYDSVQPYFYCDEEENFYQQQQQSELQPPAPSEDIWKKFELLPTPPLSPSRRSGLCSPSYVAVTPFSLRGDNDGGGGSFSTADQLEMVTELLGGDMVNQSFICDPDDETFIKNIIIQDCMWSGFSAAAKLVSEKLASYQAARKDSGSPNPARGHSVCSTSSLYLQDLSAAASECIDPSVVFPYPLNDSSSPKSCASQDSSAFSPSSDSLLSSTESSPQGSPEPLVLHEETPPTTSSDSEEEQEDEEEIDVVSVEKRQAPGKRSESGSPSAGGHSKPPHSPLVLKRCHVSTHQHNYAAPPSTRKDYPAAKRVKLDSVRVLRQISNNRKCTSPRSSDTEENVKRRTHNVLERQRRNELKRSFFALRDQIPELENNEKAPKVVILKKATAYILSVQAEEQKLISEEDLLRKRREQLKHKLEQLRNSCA
The experiment is described as follows: c-Myc/Max/Ebox DNA AlphaScreen Assay. Format: binding. The note with it: Table 2, compounds of FIG. 1; calculated IC50 class. As for the experimental part:
Compounds of the invention were assayed for c-Myc/Max/EBox activity as described in the following protocol. Human his6-c-Myc and his6-Max were used with biotinylated DNA containing a single Ebox sequence (biotin[…]) purchased from MWG Operon. Free c-Myc was generated from his6-c-Myc through thrombin cleavage of the his6 tag. For 384-well plate assays, 10 μL of a 2× solution of free c-Myc (20 nM final), Ni^2+ coated Acceptor Beads (25 μg/ml final), and biotinylated Ebox oligo (10 nM final) were added to 384-well plates with a Biotek EL406 liquid handler. 50 nL of compounds from stock plates were added by pin transfer using a Janus Workstation (PerkinElmer), allowing the compounds to interact with c-Myc prior to c-Myc binding with Max. In the current assay, DMSO was not allowed to exceed 2% v/v of the assay. 10 μl of 2× master mix containing streptavidin-coated donor beads (25 μg/ml final) and his6-Max (5 nM) were added. AlphaScreen measurements were performed on an Envision plate reader (PerkinElmer) utilizing the manufacturer's protocol.
Both master mixes were made in room temperature assay buffer (50 mM HEPES, 150 mM NaCl, 0.2% w/v BSA, 0.02% w/v Tween20, 40 μg/ml glycogen, 500 μM DTT, pH 8.0, wherein both DTT and glycogen were added fresh). Alpha beads were added to respective master solutions. All subsequent steps were performed in low light conditions. Solution 1:2× solution of components with final concentrations of c-Myc Ni-coated Acceptor Beads (25 μg/ml), and biotinylated Ebox oligo (10 nM). Solution 2:2× solution of streptavidin-coated donor beads (25 μg/ml final) and his6-Max 10 μL. […] 50 nL of compounds from stock plates were added by pin transfer using a Janus Workstation. Solution 2 (10 μl) was added with the liquid handler. Plates were sealed with foil to block light exposure and prevent evaporation. Plates were very briefly centrifuged followed by 2 hour incubation. […] Excitation was at 680 nm for donor bead release of singlet oxygen and emission was read with a bandpass filter from 520-620 nm.
Turning to `COCCNCCC(=O)Nc1sc2c(c1-c1nc3ccc(-c4ccncc4)cc3s1)CC(C)NC2C` (single isomer, unassigned) [Compound 518, N-(5,7-Dimethyl-3-(6-(pyridin-4-yl)benzo[d]thiazol-2-yl)-4,5,6,7-tetrahydrothieno[2,3-c]pyridin-2-yl)-3-((2-methoxyethyl)amino)propanamide], the IC50 is 1 to 10 µM. On to `CC(C)N1CCc2c(sc(NC(=O)CCNCCc3ccccc3Cl)c2-c2nc3ccccc3s2)C1` [Compound 109, N-(3-(benzo[d]thiazol-2-yl)-6-isopropyl-4,5,6,7-tetrahydrothieno[2,3-c]pyridin-2-yl)-3-((2-chlorophenethyl)amino)propanamide], for which the IC50 is above 10 µM. For `CC(C)N1CCc2c(sc(NC(=O)CCNCCCOCCOCCOCCCN)c2-c2nc3ccccc3s2)C1` [Compound 120, 1-amino-N-(3-(benzo[d]thiazol-2-yl)-6-isopropyl-4,5,6,7-tetrahydrothieno[2,3-c]pyridin-2-yl)-4,7,10-trioxa-14-azaheptadecan-17-amide], the IC50 was below 0.3 µM.

Turning to `CCOC(=O)CNCCC(=O)Nc1sc2c(c1-c1nc3ccccc3s1)CCN(C(C)C)C2` [Compound 138, Ethyl (3-((3-(benzo[d]thiazol-2-yl)-6-isopropyl-4,5,6,7-tetrahydrothieno[2,3-c]pyridin-2-yl)amino)-3-oxopropyl)glycinate], the IC50 is 0.3 to 1 µM. For `CCC(C)NCCC(=O)Nc1sc2c(c1-c1nc3cc(Br)ccc3s1)CCNC2` (centres unmarked) [Compound 139, N-(3-(5-bromobenzo[d]thiazol-2-yl)-4,5,6,7-tetrahydrothieno[2,3-c]pyridin-2-yl)-3-(sec-butylamino)propanamide], the IC50 was below 0.3 µM. In the case of `O=C(O)CNCCC(=O)Nc1sc2c(c1-c1nc3ccccc3s1)CCNC2` [Compound 166, (3-((3-(benzo[d]thiazol-2-yl)-4,5,6,7-tetrahydrothieno[2,3-c]pyridin-2-yl)amino)-3-oxopropyl)glycine], the IC50 was 0.3 to 1 µM. For `O=C(CCNCc1cn[nH]c1)Nc1sc2c(c1-c1nc3ccccc3s1)CCNC2` [Compound 167, 3-(((1H-pyrazol-4-yl)methyl)amino)-N-(3-(benzo[d]thiazol-2-yl)-4,5,6,7-tetrahydrothieno[2,3-c]pyridin-2-yl)propanamide], the IC50 is below 0.3 µM.

Consider `CC(C)N1CCc2c(sc(NC(=O)CCNCC(=O)O)c2-c2nc3ccccc3s2)C1` [Compound 168, (3-((3-(benzo[d]thiazol-2-yl)-6-isopropyl-4,5,6,7-tetrahydrothieno[2,3-c]pyridin-2-yl)amino)-3-oxopropyl)glycine], for which the IC50 was 0.3 to 1 µM.

Turning to `Cc1cccc2oc(-c3c(NC(=O)CCNC(C)C)sc4c3CCNC4)nc12` [Compound 311, 3-(Isopropylamino)-N-(3-(4-methylbenzo[d]oxazol-2-yl)-4,5,6,7-tetrahydrothieno[2,3-c]pyridin-2-yl)propanamide dihydrochloride], the IC50 is 0.3 to 1 µM.

In the case of `COCCNCCC(=O)Nc1sc2c(c1-c1nc3ccccc3s1)C[C@H](C)NC2` [Compound 538, (S)—N-(3-(Benzo[d]thiazol-2-yl)-5-methyl-4,5,6,7-tetrahydrothieno[2,3-c]pyridin-2-yl)-3-((2-methoxyethyl)amino)propanamide], the IC50 is 0.3 to 1 µM. On to “N-(3-(Benzo[d]thiazol-2-yl)-6-isopropyl-4,5,6,7-tetrahydrothieno[2,3-c]pyridin-2-yl)-3-(isobutylamino)propanamide [Compound 552]”, for which the IC50 is above 10 µM.

Regarding “N-((5S,7R)-5,7-dimethyl-3-(5-(pyridin-4-yl)benzo[d]thiazol-2-yl)-4,5,6,7-tetrahydrothieno[2,3-c]pyridin-2-yl)-3-((2-methoxyethyl)amino)propanamide [Compound 532]”, the IC50 was 1 to 10 µM.

The experiment is the same for the next values; noted with them: Table 3, compounds of FIG. 2; calculated IC50 class.
With `CC(=O)Nc1sc2c(c1-c1nc3ccccc3s1)[C@H](C)CN(C(C)C)C2` [Compound 207, (S)—N-(3-(benzo[d]thiazol-2-yl)-6-isopropyl-4-methyl-4,5,6,7-tetrahydrothieno[2,3-c]pyridin-2-yl)acetamide], the IC50 was 1 to 10 µM. Consider `CC(=O)Nc1sc2c(c1-c1nc3ccccc3s1)[C@@H](C)CN(C(C)C)C2` [Compound 208, (R)—N-(3-(benzo[d]thiazol-2-yl)-6-isopropyl-4-methyl-4,5,6,7-tetrahydrothieno[2,3-c]pyridin-2-yl)acetamide], for which the IC50 is 1 to 10 µM. The same measure, in the same setting: the value for `CC(=O)Nc1sc2c(c1-c1nc3ccccc3s1)CC(C)NC2` (centres unmarked) [Compound 209, N-(3-(benzo[d]thiazol-2-yl)-5-methyl-4,5,6,7-tetrahydrothieno[2,3-c]pyridin-2-yl)acetamide] was 1 to 10 µM; that for `CC(=O)Nc1sc2c(c1-c1nc3ccccc3s1)CCNC2C` (centres unmarked) [Compound 210, N-(3-(benzo[d]thiazol-2-yl)-7-methyl-4,5,6,7-tetrahydrothieno[2,3-c]pyridin-2-yl)acetamide] was 1 to 10 µM; that for `CCN1[C@H](C)Cc2c(sc(NC(C)=O)c2-c2nc3ccccc3s2)[C@@H]1C` [Compound 211, N-(3-(benzo[d]thiazol-2-yl)-6-ethyl-5,7-dimethyl-4,5,6,7-tetrahydrothieno[2,3-c]pyridin-2-yl)acetamide] was 1 to 10 µM. On to `CC(=O)Nc1sc2c(c1-c1nc3ccccc3s1)C(C)CCNC2` (centres unmarked) [Compound 212, N-(3-(benzo[d]thiazol-2-yl)-4-methyl-5,6,7,8-tetrahydro-4H-thieno[2,3-c]azepin-2-yl)acetamide], for which the IC50 was above 10 µM.

With `CC(=O)Nc1sc2c(c1-c1nc3ccccc3s1)C(C)CCN(C(C)C)C2` (centres unmarked) [Compound 213, N-(3-(benzo[d]thiazol-2-yl)-7-isopropyl-4-methyl-5,6,7,8-tetrahydro-4H-thieno[2,3-c]azepin-2-yl)acetamide], the IC50 was above 10 µM. In the case of `CC(=O)Nc1sc2c(c1-c1nc3ccccc3s1)CCNC2C(F)(F)F` (centres unmarked) [Compound 214, N-(3-(benzo[d]thiazol-2-yl)-7-(trifluoromethyl)-4,5,6,7-tetrahydrothieno[2,3-c]pyridin-2-yl)acetamide], the IC50 was above 10 µM. Consider `CC(=O)Nc1sc2c(c1-c1nc3ccccc3s1)CC(C(F)(F)F)NC2` (centres unmarked) [Compound 215, N-(3-(benzo[d]thiazol-2-yl)-5-(trifluoromethyl)-4,5,6,7-tetrahydrothieno[2,3-c]pyridin-2-yl)acetamide], for which the IC50 was above 10 µM. As to `CC(=O)Nc1sc2c(c1-c1nc3ccccc3s1)CCN(C(C)C)C2C` (centres unmarked) [Compound 216, N-(3-(benzo[d]thiazol-2-yl)-6-isopropyl-7-methyl-4,5,6,7-tetrahydrothieno[2,3-c]pyridin-2-yl)acetamide], the IC50 was above 10 µM. With `CC(=O)Nc1sc2c(c1-c1nc3ccccc3s1)CCC(NC(C)=O)C2` (centres unmarked) [Compound 222, N,N′-(3-(benzo[d]thiazol-2-yl)-4,5,6,7-tetrahydrobenzo[b]thiophene-2,6-diyl)diacetamide], the IC50 was above 10 µM. As to `CC(=O)Nc1sc2c(c1-c1nc3ccccc3s1)CCC(NC1CCN(C(=O)OC(C)(C)C)CC1)C2` (centres unmarked) [Compound 228, tert-butyl 4-((2-acetamido-3-(benzo[d]thiazol-2-yl)-4,5,6,7-tetrahydrobenzo[b]thiophen-6-yl)amino)piperidine-1-carboxylate], the IC50 is above 10 µM.

The test system of a further experiment is human small lung cancer cell line H2171. Briefly: Cell Viability Assay (ATPlite). The class given is cell-based. The following applies: Homo sapiens, NCI-H2171, 72 h, Table 2, compounds of FIG. 1; H2171 cells, three days, ATPlite; calculated IC50 class; read-out: H2171 Activity. As for the experimental part:
Compounds of the invention were assayed for cell viability using the human small lung cancer cell line H2171 as described in the following protocol. Cells were counted and adjusted to 20,000 cells/mL. Using a Biotek EL406, 50 μL of cells in media were distributed into 384 well white plates from Thermo. Immediately after plating, compound in DMSO was distributed to plates. Compounds were added to plates using a 50 nL 384 well pin transfer manifold on a Janus workstation. Stocks were arrayed in 10 point dose response in DMSO stock in 384 well Greiner compound plates. After the addition of compounds, plates were incubated for three days in a 37° C. incubator. Cell viability was read out using ATPlite from Perkin Elmer. Lyophilized powder was resuspended in lysis buffer and diluted 1:2 with deionized water. 25 μL of this solution was added to each well using the Biotek liquid handler. Plates were incubated for 15 minutes at room temperature before signal was read on an Envision Plate Reader. The data from this assay are summarized in Tables 2 and 3 below (H2171 activity).
As to `CCC(C)NCCC(=O)Nc1sc2c(c1-c1nc3cc(Br)ccc3s1)CCN(C(C)C)C2` (centres unmarked) [Compound 141, N-(3-(5-bromobenzo[d]thiazol-2-yl)-6-isopropyl-4,5,6,7-tetrahydrothieno[2,3-c]pyridin-2-yl)-3-(sec-butylamino)propanamide], the IC50 is 0.3 to 1 µM.

Turning to `Cn1cc(CNCCC(=O)Nc2sc3c(c2-c2nc4ccccc4s2)CCNC3)cn1` [Compound 143, N-(3-(benzo[d]thiazol-2-yl)-4,5,6,7-tetrahydrothieno[2,3-c]pyridin-2-yl)-3-(((1-methyl-1H-pyrazol-4-yl)methyl)amino)propanamide], the IC50 is below 0.3 µM.

Values taken from patent US10787444B2, “Compounds for the modulation of myc activity” (Syros Pharmaceuticals, Inc., priority 2015, dated 2020).
